# In PubChem BioAssay AID1259407 (Chemical Carcinogenesis Research Information System (CCRIS), 2018):
# Active and inactive are the calls of the source. How the calls were made is not given here.
# Tested on: CCRIS mutagenicity, Ames/micronucleus/aberration tests
# Test: CCRIS mutagenicity studies
# [1] = Test System: AMES SALMONELLA TYPHIMURIUM, Strain/Indicator: TA100, Metabolic Activation: NONE, Method: PREINCUBATION
# [2] = Test System: AMES SALMONELLA TYPHIMURIUM, Strain/Indicator: TA98, Metabolic Activation: NONE, Method: STANDARD PLATE
# [3] = Test System: AMES SALMONELLA TYPHIMURIUM, Strain/Indicator: TA100, Metabolic Activation: NONE, Method: STANDARD PLATE
compound,measurement,setting,value
Nc1cc(Cl)cc(S(=O)(=O)O)c1O,mutagenic call,"Test System: AMES SALMONELLA TYPHIMURIUM, Strain/Indicator: TA97, Metabolic Activation: HAMSTER, LIVER, S-9, AROCLOR 1254 (10 OR 30%), Method: PREINCUBATION",inactive; negative
same,mutagenic call,"Test System: AMES SALMONELLA TYPHIMURIUM, Strain/Indicator: TA97, Metabolic Activation: NONE, Method: PREINCUBATION",inactive; negative
same,mutagenic call,"Test System: AMES SALMONELLA TYPHIMURIUM, Strain/Indicator: TA97, Metabolic Activation: RAT, LIVER, S-9, AROCLOR 1254 (10 OR 30%), Method: PREINCUBATION",inactive; negative
same,mutagenic call,"Test System: AMES SALMONELLA TYPHIMURIUM, Strain/Indicator: TA98, Metabolic Activation: HAMSTER, LIVER, S-9, AROCLOR 1254 (10 OR 30%), Method: PREINCUBATION",inactive; negative
same,mutagenic call,"Test System: AMES SALMONELLA TYPHIMURIUM, Strain/Indicator: TA98, Metabolic Activation: NONE, Method: PREINCUBATION",inactive; negative
same,mutagenic call,"Test System: AMES SALMONELLA TYPHIMURIUM, Strain/Indicator: TA98, Metabolic Activation: RAT, LIVER, S-9, AROCLOR 1254 (10 OR 30%), Method: PREINCUBATION",inactive; negative
same,mutagenic call,"Test System: AMES SALMONELLA TYPHIMURIUM, Strain/Indicator: TA100, Metabolic Activation: HAMSTER, LIVER, S-9, AROCLOR 1254 (10 OR 30%), Method: PREINCUBATION",inactive; negative
same,mutagenic call,[1],inactive; negative
same,mutagenic call,"Test System: AMES SALMONELLA TYPHIMURIUM, Strain/Indicator: TA100, Metabolic Activation: RAT, LIVER, S-9, AROCLOR 1254 (10 OR 30%), Method: PREINCUBATION",inactive; negative
same,mutagenic call,"Test System: AMES SALMONELLA TYPHIMURIUM, Strain/Indicator: TA1535, Metabolic Activation: HAMSTER, LIVER, S-9, AROCLOR 1254 (10 OR 30%), Method: PREINCUBATION",inactive; negative
same,mutagenic call,"Test System: AMES SALMONELLA TYPHIMURIUM, Strain/Indicator: TA1535, Metabolic Activation: NONE, Method: PREINCUBATION",inactive; negative
same,mutagenic call,"Test System: AMES SALMONELLA TYPHIMURIUM, Strain/Indicator: TA1535, Metabolic Activation: RAT, LIVER, S-9, AROCLOR 1254 (10 OR 30%), Method: PREINCUBATION",inactive; negative
CCOC(=O)C(C)NC(=O)C=[N+]=[N-] (stereo unspecified),mutagenic call,"Test System: UDS RODENT CELLS, Strain/Indicator: THY INCORP (NON-S-PHASE), Metabolic Activation: NONE, Method: AUTORADIOGRAPHY",active; positive
CN(C)c1nc(=O)n(C2CCCCC2)c(=O)n1C,mutagenic call,"End Point: In vitro chromosomal aberrations, Test System: Chinese hamster ovary (CHO) cells, Metabolic Activation: None",active; positive
same,mutagenic call,"End Point: In vitro chromosomal aberrations, Test System: Chinese hamster ovary (CHO) cells, Metabolic Activation: S-9",inactive; negative
Nc1nc(=O)n([C@@H]2O[C@H](CO)[C@@H](O)[C@H]2O)cc1O,mutagenic call,[1],inactive; negative
CCCCCN(CCCCO)N=O,mutagenic call,"Test System: AMES SALMONELLA TYPHIMURIUM, Strain/Indicator: TA1535, Metabolic Activation: RAT, LIVER, S-9, KANECHLOR 500 OR PHENOBARBITAL, Method: LIQUID SUSPENSION",active; positive
CNC(=O)ON,mutagenic call,[2],active; positive
same,mutagenic call,"Test System: AMES SALMONELLA TYPHIMURIUM, Strain/Indicator: TA98, Metabolic Activation: RAT, LIVER, S-9, Method: STANDARD PLATE",active; positive
same,mutagenic call,[3],active; positive
CC(C)NCC(O)COc1cccc2[nH]c3ccccc3c12 (stereo unspecified),mutagenic call,[2],inactive; negative
same,mutagenic call,"Test System: AMES SALMONELLA TYPHIMURIUM, Strain/Indicator: TA98, Metabolic Activation: RAT, LIVER, S-9, AROCLOR 1254, Method: STANDARD PLATE",inactive; negative
same,mutagenic call,[3],inactive; negative
same,mutagenic call,"Test System: AMES SALMONELLA TYPHIMURIUM, Strain/Indicator: TA100, Metabolic Activation: RAT, LIVER, S-9, AROCLOR 1254, Method: STANDARD PLATE",inactive; negative
O=C(/C=C/c1ccc(O)cc1)c1ccc(O)cc1O,mutagenic call,"Test System: Ames Salmonella typhimurium, Strain/Indicator: TA102, Metabolic Activation: None, Method: Preincubation",inactive; negative
same,mutagenic call,"Test System: Ames Salmonella typhimurium, Strain/Indicator: TA102, Metabolic Activation: Rat, Liver, S-9, Aroclor 1254 in 0.154 M KCl, Method: Preincubation",active; positive
